Measured values reported in patent publication US20110015226A1, “Treatment of Energy Utilization Disease” (SUMMIT CORPORATION PLC, priority 2008, published 2011).

Key:
[1] = test system: ddy mice; experiment: Serum insulin levels in ddy mice with or without glucose load; assay type: in vivo; conditions: 30 minutes
Procedure: 7 week old ddy mice (weight 30-31 g) were divided into 4 groups (groups 1 to 4). Each group had 3-4 mice. All test mouse were fasted for 16 hours before being given the test compounds.
Group 1: Control. un-treated mice (without glucose and G2). Group 2: Oral administration of glucose alone. Group 3: Oral administration of G2 alone. Group 4: Oral administration of G2 with glucose.
Serum insulin levels were measured after 30 minutes (see FIG. 2).
FIG. 3 Effects of G2 (BR1) (100 mg/kg body weight) on serum insulin levels.
Serum insulin concentrations of male ddy mouse after 30 minutes later an oral load with or without D-glucose (2.5 g/kg body weight). Each value represents the mean±SEM (n=3-4). * P<0.05, ** P<0.01.

[2] = target: glucuronidase (Homo sapiens, UniProt P08236); conditions: Booth et al. (2007) and references therein; cited from earlier work
Chain of glucuronidase (P08236 23-651): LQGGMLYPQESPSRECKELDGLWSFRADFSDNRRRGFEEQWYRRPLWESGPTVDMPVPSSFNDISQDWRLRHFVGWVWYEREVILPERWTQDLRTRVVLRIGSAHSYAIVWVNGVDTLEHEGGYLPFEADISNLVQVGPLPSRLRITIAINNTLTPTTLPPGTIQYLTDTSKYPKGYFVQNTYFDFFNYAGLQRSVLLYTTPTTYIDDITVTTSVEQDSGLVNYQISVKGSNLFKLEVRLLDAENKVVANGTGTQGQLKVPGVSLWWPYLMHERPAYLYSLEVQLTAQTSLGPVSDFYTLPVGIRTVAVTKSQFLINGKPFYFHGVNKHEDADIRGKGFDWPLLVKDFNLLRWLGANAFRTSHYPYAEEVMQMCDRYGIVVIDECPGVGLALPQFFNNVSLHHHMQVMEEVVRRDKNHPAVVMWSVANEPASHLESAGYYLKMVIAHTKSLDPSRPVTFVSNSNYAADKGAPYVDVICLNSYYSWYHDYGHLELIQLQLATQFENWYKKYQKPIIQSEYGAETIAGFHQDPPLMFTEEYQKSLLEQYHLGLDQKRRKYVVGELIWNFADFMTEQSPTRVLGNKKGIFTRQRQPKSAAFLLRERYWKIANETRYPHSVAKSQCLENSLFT

O=C(O)[C@H]1NC[C@H](O)[C@@H](O)[C@@H]1O [Compound G2, 2S,3R,4R,5S-trihydroxypiperidine-2-carboxylic acid]
serum insulin level, G2 with glucose ([1]; 100 mg/kg body weight oral with D-glucose 2.5 g/kg, vs glucose alone): much effective than glucose alone | serum insulin level, G2 alone ([1]; 100 mg/kg body weight oral, without glucose, vs un-treated): did not affect the insulin level | inhibition of glucuronidase [2]: weak inhibitor
